From PMC12005767 (Advanced Science, 2025)

Tests used:
HDAC1 [1] = target: T1, HDAC1 (Homo sapiens, UniProt Q13547); design: method as in PMID 27754681; conditions: prior research; cited from earlier work
T1 construct: purchased BPS Bioscience

HDAC11 = target: T2, HDAC11 (Homo sapiens, UniProt Q96DB2); assay: HDAC11 inhibition fluorescence assay (ETDKmyr substrate); type: biochemical; conditions: for IC50: mean ± SEM
T2 construct: The HDAC11 enzyme was a full‐length human recombinant HDAC enzyme sourced from BPS Bioscience; purchased BPS Bioscience
T2 sequence (Q96DB2 1-347): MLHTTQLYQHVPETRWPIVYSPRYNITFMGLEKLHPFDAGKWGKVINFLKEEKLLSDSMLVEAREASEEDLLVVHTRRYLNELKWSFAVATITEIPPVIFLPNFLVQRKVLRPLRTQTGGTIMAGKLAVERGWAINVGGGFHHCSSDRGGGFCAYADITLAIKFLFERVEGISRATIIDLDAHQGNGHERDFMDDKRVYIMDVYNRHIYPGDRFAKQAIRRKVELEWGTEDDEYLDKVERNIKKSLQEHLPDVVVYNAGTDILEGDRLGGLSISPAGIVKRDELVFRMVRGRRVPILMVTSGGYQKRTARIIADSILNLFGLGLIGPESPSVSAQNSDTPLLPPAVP
Procedure: The HDAC11 enzyme was a full‐length human recombinant HDAC enzyme sourced from BPS Bioscience. In detail, a total of 20 µL of recombinant HDAC11 enzyme solution (working concentration = 1 × 10^−9 M) was combined with varying concentrations of the test compound (20 µL) in a 96‐well black plate. The mixture was then incubated at a temperature of 30 °C for a duration of 1 h. Subsequently, 10 µL of the specific fluorogenic substrate (ETDKacyl‐Kmyr) was added. Following 2 h incubation at 30 °C, the catalytic reaction was ceased by adding 10 µL of a developer solution consisting of 2 mg mL^−1 trypsin and 5 × 10^−6 M trichostatin A (TSA). After a standing period of 6 h, the fluorescence intensity was assessed using a microplate reader at excitation and emission wavelengths of 360 and 460 nm, respectively. The inhibition ratios were calculated based on the fluorescence intensity readings of the test wells compared to the control wells. GraphPad Prism 8.0 software was employed to generate IC 50 curves and determine the corresponding IC 50 values utilizing the “log(inhibitor) versus normalized response‐variable slope” function.

HDAC1 [2] = target: T1, HDAC1; assay: In vitro HDACs inhibition fluorescence assay, HDAC1; type: biochemical; conditions: mean ± SEM
Procedure: (§1) In Vitro HDACs Inhibition Fluorescence Assay: For the inhibitory activity against HDAC1‐10, enzymes were also procured from BPS Bioscience. The in vitro […] inhibition assays were conducted following the established method described previously.^[ [45] ^] The working concentrations of HDAC1‐10 were 4 × 10^−9 M. The fluorogenic substrate of HDAC1, 2, 3, and 6 was Boc‐Lys (acetyl)‐AMC, and the substrate of HDAC4, 5, 7, 8, 9, and 10 was Boc‐Lys (trifluoroacetyl) AMC. The developer solution consists of 30 mg mL^−1 trypsin and 5 × 10^−6 M TSA. A standing period of 30 min was sufficient before assessing the fluorescence intensity.

HDAC3 = target: T3, HDAC3 (Homo sapiens, UniProt O15379); assay: In vitro HDACs inhibition fluorescence assay, HDAC3; type: biochemical; conditions: mean ± SEM
T3 construct: purchased BPS Bioscience
T3 sequence (O15379 whole entry): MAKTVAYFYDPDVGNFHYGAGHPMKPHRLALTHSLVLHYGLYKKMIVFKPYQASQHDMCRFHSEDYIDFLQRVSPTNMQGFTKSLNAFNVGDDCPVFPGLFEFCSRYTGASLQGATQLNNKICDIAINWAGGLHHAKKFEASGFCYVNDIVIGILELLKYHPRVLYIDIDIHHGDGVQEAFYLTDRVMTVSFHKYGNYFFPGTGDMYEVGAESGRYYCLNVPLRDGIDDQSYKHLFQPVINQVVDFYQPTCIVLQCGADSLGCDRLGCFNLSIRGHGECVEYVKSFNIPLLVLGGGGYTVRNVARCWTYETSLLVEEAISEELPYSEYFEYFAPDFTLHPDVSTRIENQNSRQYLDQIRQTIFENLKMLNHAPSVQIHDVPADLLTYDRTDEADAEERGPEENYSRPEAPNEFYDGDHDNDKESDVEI
T3 sequence (Q9Y618 395-489 partner limits assumed): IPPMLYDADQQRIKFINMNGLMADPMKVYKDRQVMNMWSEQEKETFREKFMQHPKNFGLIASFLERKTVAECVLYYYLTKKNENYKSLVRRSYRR
Procedure: as §1

T1 sequence (Q13547 whole entry): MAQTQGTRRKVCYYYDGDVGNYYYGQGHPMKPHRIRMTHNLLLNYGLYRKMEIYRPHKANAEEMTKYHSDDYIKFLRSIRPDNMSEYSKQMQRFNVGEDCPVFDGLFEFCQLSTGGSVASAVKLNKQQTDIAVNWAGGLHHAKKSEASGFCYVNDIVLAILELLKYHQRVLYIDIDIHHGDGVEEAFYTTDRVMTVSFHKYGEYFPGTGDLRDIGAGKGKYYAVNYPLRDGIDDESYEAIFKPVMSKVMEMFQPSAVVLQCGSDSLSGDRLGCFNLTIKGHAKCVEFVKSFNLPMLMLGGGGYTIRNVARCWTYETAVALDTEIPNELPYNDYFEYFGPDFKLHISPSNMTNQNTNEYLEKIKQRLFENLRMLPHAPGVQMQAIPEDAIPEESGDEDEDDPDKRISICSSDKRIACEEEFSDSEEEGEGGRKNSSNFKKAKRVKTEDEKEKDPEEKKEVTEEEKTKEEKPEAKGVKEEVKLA

Row | inhibitory activity against HDAC11 (in words) (HDAC11) | IC50 (HDAC11) | IC50 (HDAC1 [2]) | IC50 (HDAC3) | Structure (SMILES) | IC50 for HDAC1 (in words) (HDAC1 [1])
1 |  | 942 ± 94.1 nM | 2050 ± 27.5 nM | 501 ± 2.4 nM | CCCCCCCCNNC(=O)c1ccc(CNC(=O)c2ccccc2)cc1 [A5] | 
2 |  | 504 ± 45.5 nM | > 10000 nM | 2050 ± 39.5 nM | CCCCCCCCCNNC(=O)c1ccc(CNC(=O)c2ccccc2)cc1 [A6] | 
3 |  | 494 ± 41.9 nM |  |  | CCOCCCCCCCCNNC(=O)c1ccc(CNC(=O)c2ccccc2)cc1 [B3] | 
4 |  | 257 ± 12.1 nM |  |  | CCCOCCCCCCCNNC(=O)c1ccc(CNC(=O)c2ccccc2)cc1 [B4] | 
5 |  | 357 ± 16.5 nM |  |  | CCCCOCCCCCCNNC(=O)c1ccc(CNC(=O)c2ccccc2)cc1 [B5] | 
6 |  | 2440 ± 223 nM |  |  | COCCOCCCCCCNNC(=O)c1ccc(CNC(=O)c2ccccc2)cc1 [B7] | 

Second part, the molecule before the results:

Row | Structure (SMILES) | inhibitory activity against HDAC11 (in words) (HDAC11) | IC50 (HDAC11) | IC50 (HDAC1 [2]) | IC50 (HDAC3) | IC50 for HDAC1 (in words) (HDAC1 [1])
7 | CCCCNNC(=O)c1ccc(CNC(=O)c2ccccc2)cc1 [A1] | moderate inhibitory activity | 3250 ± 241 nM | 20.5 ± 1.4 nM |  | low nanomolar
8 | CCCCCNNC(=O)c1ccc(CNC(=O)c2ccccc2)cc1 [A2] | moderate inhibitory activity | 6740 ± 324 nM | 45.6 ± 2.36 nM |  | low nanomolar
9 | CCCCCCNNC(=O)c1ccc(CNC(=O)c2ccccc2)cc1 [A3] |  | > 10000 nM | 34.5 ± 3.15 nM | 6.79 ± 0.19 nM | 
10 | CCCCCCCNNC(=O)c1ccc(CNC(=O)c2ccccc2)cc1 [A4] |  | 3310 ± 157 nM | 415 ± 153 nM | 6360 ± 324 nM | 
11 | CCCCCCCCCCNNC(=O)c1ccc(CNC(=O)c2ccccc2)cc1 [A7] |  | 416 ± 41.1 nM | > 10000 nM | > 10000 nM | 
12 | CCCCCCCCCCCCNNC(=O)c1ccc(CNC(=O)c2ccccc2)cc1 [A9] |  | 132 ± 4.29 nM | > 10000 nM | > 10000 nM | 
13 | O=C(NCc1ccc(C(=O)NNCCCCCCCCCCO)cc1)c1ccccc1 [B1] |  | 664 ± 64.9 nM |  |  | 
14 | COCCCCCCCCCNNC(=O)c1ccc(CNC(=O)c2ccccc2)cc1 [B2] |  | 1550 ± 116 nM |  |  | 
15 | CCOCCOCCCCCNNC(=O)c1ccc(CNC(=O)c2ccccc2)cc1 [B8] |  | 801 ± 49.5 nM |  |  | 
16 | CCCCCCCCCCCCCCCCNNC(=O)c1cccs1 [SIS17, reference compound] |  | 243 ± 12.3 nM | > 10000 nM | > 10000 nM | 
